Experimental data reported in patent US10456397B2, “Covalent inhibitors of CDK-7” (Newave Pharmaceutical Inc., priority 2015, dated 2019).
Where “and” joins values, the source holds several entries; their conditions need not be identical. Equal entries are not always repeated. Where two headings read alike, the source gives them in different places.

What was measured:
[1] = system: NCI-H69; test: In vitro anti-proliferation assay (ATPlite); format: cell-based; settings: SCLC cell line NCI-H69, about 72 hours, read-out: anti-proliferative IC50
Experimental: (§1) Cell antiproliferation is assayed by PerkinElmer ATPlite™ Luminescence Assay System. Briefly, the various test cancer cell lines are plated at a density of about 1×10^4 cells per well in Costar 96-well plates, and are incubated with different concentrations of compounds for about 72 hours in medium supplemented with 5% FBS. One lyophilized substrate solution vial is then reconstituted by adding 5 mL of substrate buffer solution, and is agitated gently until the solution is homogeneous. About 50 μL of mammalian cell lysis solution is added to 100 μL of cell suspension per well of a microplate, and the plate is shaken for about five minutes in an orbital shaker at ˜700 rpm. This procedure is used to lyse the cells and to stabilize the ATP. Next, 50 μL substrate solution is added to the wells and microplate is shaken for five minutes in an orbital shaker at ˜700 rpm. Finally, the luminescence is measured by a PerkinElmer TopCount® Microplate Scintillation Counter.
(§2) As shown in the following table, the CY-16-1 has potent anticancer activity in small cell lung cancer (SCLC) cell lines. Cisplatin, the first line treatment of SCLC, was used as a reference drug in this assay: […]

[2] = system: NCI-H209; test: In vitro anti-proliferation assay (ATPlite); format: cell-based; settings: SCLC cell line NCI-H209, about 72 hours, read-out: anti-proliferative IC50
Experimental: as §1, §2

[3] = system: DMS 114; test: In vitro anti-proliferation assay (ATPlite); format: cell-based; settings: SCLC cell line DMS 114, about 72 hours, read-out: anti-proliferative IC50
Experimental: as §1, §2

[4] = system: NCI-H82; test: In vitro anti-proliferation assay (ATPlite); format: cell-based; settings: SCLC cell line NCI-H82, about 72 hours, read-out: anti-proliferative IC50
Experimental: as §1, §2

[5] = system: NCI-H446; test: In vitro anti-proliferation assay (ATPlite); format: cell-based; settings: SCLC cell line NCI-H446, about 72 hours, read-out: anti-proliferative IC50
Experimental: as §1, §2

[6] = molecular target: CDK7/CycH/MAT1 (Homo sapiens, UniProt P50613); test: In vitro irreversible dialysis assay; format: biochemical; settings: 700 nM compound pre-incubated 2 h with 50 nM enzyme, dialyzed 24 h at RT
Experimental: 700 nM CY-16-1 compound was pre-incubated with 50 nM CDK7/CycH/MAT1 enzyme for 2 h in a buffer comprising: 100 mM HEPES pH7.5, 0.1% BSA, 5 mM MgCl2, 1 mM DTT, 0.01% Triton X-100 and dialyzed at RT against the same buffer for a total time of 24 h (3 changes of the dialysis buffer, nominal cumulative dialysis factor: 30,000). Control samples included: DMSO+50 nM CDK7 dialyzed in the identical manner Un-dialyzed samples with compound were assembled and incubated for 24 h at RT. Following dialysis, the CDK7 activity was measured in real-time format in the presence of 100 uM ATP and 1 uM substrate peptide. Initial velocity was determined in the samples.

[7] = molecular target: T1, CDK7 (Homo sapiens, UniProt P50613); test: KINOMEscan CDK7 binding constant (Kd) determination; settings: KINOMEscan competition binding, 11-point 3-fold dilution
T1 construct: made in house; host or cells: E. coli BL21-derived host (T7 phage) or HEK-293
Experimental: The assay is performed by combining three components: DNA-tagged kinase; immobilized ligand; and a test compound. The ability of the test compound to compete with the immobilized ligand is measured via quantitative PCR of the DNA tag.
The kinase-tagged T7 phage strains were prepared in an E. coli host derived from the BL21 strain. E. coli were grown to log-phase and infected with T7 phage and incubated with shaking at 32° C. until lysis. The lysates were centrifuged and filtered to remove cell debris. The remaining kinases were produced in HEK-293 cells and subsequently tagged with DNA for qPCR detection. Streptavidin-coated magnetic beads were treated with biotinylated small molecule ligands for 30 minutes at room temperature to generate affinity resins for kinase assays. The liganded beads were blocked with excess biotin and washed with blocking buffer (SeaBlock (Pierce), 1% BSA, 0.05% Tween 20, 1 mM DTT) to remove unbound ligand and to reduce non-specific binding. […] All reactions were performed in polystyrene 96-well plates in a final volume of 0.135 ml. […] The kinase concentration in the eluates was measured by qPCR. […]
Most Kd were determined using a compound top concentration=30,000 nM. […] Binding constants (Kds) were calculated with a standard dose-response curve using the Hill equation: Response=Background+(Signal−Background)/[1+(Kd^Hill slope/Dose^Hill Slope)]. […]

[8] = molecular target: CDK7/cyclinH1/MNAT1 (Homo sapiens, UniProt P50613); test: Inhibition of CDK-7 enzymatic activity (p33 ATP radiometric assay)
CDK7/cyclinH1/MNAT1, sequence (P50613 whole entry): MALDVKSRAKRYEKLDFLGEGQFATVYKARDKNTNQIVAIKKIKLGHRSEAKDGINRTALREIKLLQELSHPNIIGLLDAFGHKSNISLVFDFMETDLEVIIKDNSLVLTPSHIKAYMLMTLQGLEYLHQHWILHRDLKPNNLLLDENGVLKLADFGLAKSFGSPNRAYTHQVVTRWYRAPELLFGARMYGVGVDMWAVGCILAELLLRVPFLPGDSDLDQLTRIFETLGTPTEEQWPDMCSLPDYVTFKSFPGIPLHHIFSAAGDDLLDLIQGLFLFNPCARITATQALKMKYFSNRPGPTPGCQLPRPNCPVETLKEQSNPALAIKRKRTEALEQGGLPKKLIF
CDK7/cyclinH1/MNAT1, sequence (P51946 whole entry partner): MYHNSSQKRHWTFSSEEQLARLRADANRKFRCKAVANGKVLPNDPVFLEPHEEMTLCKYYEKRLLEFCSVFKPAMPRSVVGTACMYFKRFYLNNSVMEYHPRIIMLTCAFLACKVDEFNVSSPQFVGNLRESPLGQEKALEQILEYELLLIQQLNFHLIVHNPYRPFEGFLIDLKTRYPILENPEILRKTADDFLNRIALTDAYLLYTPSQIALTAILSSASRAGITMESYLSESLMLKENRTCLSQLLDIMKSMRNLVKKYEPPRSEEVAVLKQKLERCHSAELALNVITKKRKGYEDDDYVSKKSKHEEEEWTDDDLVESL
CDK7/cyclinH1/MNAT1, sequence (P51948 whole entry partner): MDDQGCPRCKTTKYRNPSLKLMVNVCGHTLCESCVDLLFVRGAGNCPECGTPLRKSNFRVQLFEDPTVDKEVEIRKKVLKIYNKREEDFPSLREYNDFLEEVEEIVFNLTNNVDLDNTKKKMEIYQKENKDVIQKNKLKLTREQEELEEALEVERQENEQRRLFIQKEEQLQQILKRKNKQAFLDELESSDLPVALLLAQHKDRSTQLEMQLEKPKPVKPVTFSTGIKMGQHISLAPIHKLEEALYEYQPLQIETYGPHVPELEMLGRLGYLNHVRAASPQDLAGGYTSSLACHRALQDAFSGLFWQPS
Experimental: Material: CDK7/cyclinH1/MNAT1 (Accession number for CDK7; NP 001790, for cyclinH1; NP 001230, for MNAT1; NP 002422.1) Recombinant Human Full-Length protein, Histidine-tagged CDK7 (MW=43.2 kDa), Histidine-tagged cyclin H1 (MW=42.6 kDa), Histidine-tagged MNAT1 (MW=40.5 kDa), were expressed in insect cells. […] Activity was determined with a final protein concentration at 3.33 μg/mL. Enzyme was stored at a concentration of 0.42 mg/ml in 50 rnM Tris (pH 7.5), 150 mM NaCl, 0.5 mM EDTA, 0.02% Triton X-100, 2 mM DTT, 50% Glycerol.
For CDK7 activity assay, p33 ATP tracers were incubated with purified recombinant specific combination of purified CDK kinases, cyclins and substrates to monitor the enzyme activity. In these assays, individual reactions were carried out in specific conditions describe below with reaction buffer: 20 mM HEPES (pH 7.5), 10 mM MgCl2, 1 mM EGTA, 0.02% Brij 35, 0.02 mg/ml BSA, 0.1 mM Na3VO4, 2 mM DTT. An equal volume of 25% TCA was added to stop the reaction and precipitate the labeled peptides. […] The amount of incorporated isotope was measured using a Perkin Elmer TopCount plate reader. […] IC50 was calculated using Prism software with sigmoidal dose-response curve fitting. […] Reaction was incubated for 2 hours at room temperature and conversion rate of ATP was measured to be 5.5%. […]

T1 sequence (P50613 whole entry): as the sequence (P50613 whole entry) above
CDK7/CycH/MAT1, sequence (P50613 whole entry): as above
CDK7/CycH/MAT1, sequence (P51946 whole entry partner): as the sequence (P51946 whole entry partner) above
CDK7/CycH/MAT1, sequence (P51948 whole entry partner): as the sequence (P51948 whole entry partner) above

Structure (SMILES)	IC50 [1]	IC50 [2] [µM]	IC50 [3] [µM]	IC50 [4] [µM]	IC50 [5] [µM]	Reversibility of CDK7 inhibition after dialysis [6]	Kd [7] [µM]	IC50 ([1]; Homo sapiens, NCI-H69, 72 h) [µM]	IC50 ([2]; Homo sapiens) [µM]	IC50 ([3]; Homo sapiens) [µM]	IC50 ([4]; Homo sapiens) [µM]	IC50 ([5]; Homo sapiens) [µM]	IC50 [8] [µM]
N.N.[Cl][Pt][Cl] [Cisplatin, reference compound]	7 µM and 7.7 µM	0.274	5.95	4.51	7.45								
C=CC(=O)Nc1ccc(C(=O)Nc2cc3cc(c2)Nc2nccc(n2)-c2cccc(c2)OCC/C=C/CN(C)C3)cc1 [CY-16-1]	0.018 µM					irreversible inhibitor of CDK7	< 0.001	0.032	0.03	0.029	0.028	0.019	< 0.015
